Assays:
glioblastoma = settings: rodent glioblastoma models; shifted from 20 days; cited from earlier work
U87 cell lines = experiment: cytotoxicity in GFP transfected U87 cells (cell number); format: cell-based, human; settings: for reduction of number of cells: U87, 0.1 μm; for reduction of cell number / cytotoxic effect (in words): U87, 10 μm; for cytotoxic effect (in words): bumetanide at day 3 and day 5
Procedure: The HEK cell line is a specific immortalised cell line widely used in cell biology and biotechnology research and the U87 cell line is a human glioblastoma cell line that is commonly used in brain cancer research.
The effects of bumetanide alone or in combination with mebendazole were investigated in U87 cell lines at 0.1, 1, and 10 μm. Each experiment was performed in triplicate (n=3). Cells were GFP transfected (green). Cytotoxicity is manifested by loss of GFP and presence of small round flat cells loosing GFP expression indicative of cell death (apoptosis).

[1] = tested on: K^+ influx in HEK293 cells; experiment: K+ influx in HEK293 cells (FIG. 1A); format: cell-based, human; settings: ouabain 100 uM
U87 cells [2] = experiment: immunochemistry (Dapi, iodure propidium, Actin/GFP) viability of cells; format: cell-based, human; settings: U87, 1 μm; control: 3%
Text: The labels used are Dapi (blue) iodure propidium (red) and Actin immunocytochemistry with GFP (green) in order to visualize the viability and non-viability of cells.
To better illustrate the effects of bumetanide and mebendazole, we used Dapi (blue) iodure propidium (red) and Actin immunocytochemistry with GFP (green) in order to visualize the viability and non-viability of cells.

U87 cells [3] = experiment: scratch test (invasion of tumour cells); format: cell-based, human; settings: U87, 0.1 μm; for reduction of invasion: day 5, compared to controls not treated; for anti-invasive action (persistence of a trench): day 8
Text: To further investigate invasion of tumour cells, we performed a scratch test. This test enables to visualize the propagation and metastasis of tumour cells determined by their capacity to cross the trench. Therefore, U87 cells are cultivated and a scratch is made with a blade in order to estimate the strength and rapidity of invasion.

NKCC1 = target: T1, NKCC1 (Homo sapiens, UniProt P55011); experiment: dose response on NKCC1-mediated K+ influx (FIG. 1B); format: cell-based; settings: HEK293 cells, dose response curves
T1 construct: endogenous in cells; host or cells: HEK293
T1 sequence (P55011 1-1212): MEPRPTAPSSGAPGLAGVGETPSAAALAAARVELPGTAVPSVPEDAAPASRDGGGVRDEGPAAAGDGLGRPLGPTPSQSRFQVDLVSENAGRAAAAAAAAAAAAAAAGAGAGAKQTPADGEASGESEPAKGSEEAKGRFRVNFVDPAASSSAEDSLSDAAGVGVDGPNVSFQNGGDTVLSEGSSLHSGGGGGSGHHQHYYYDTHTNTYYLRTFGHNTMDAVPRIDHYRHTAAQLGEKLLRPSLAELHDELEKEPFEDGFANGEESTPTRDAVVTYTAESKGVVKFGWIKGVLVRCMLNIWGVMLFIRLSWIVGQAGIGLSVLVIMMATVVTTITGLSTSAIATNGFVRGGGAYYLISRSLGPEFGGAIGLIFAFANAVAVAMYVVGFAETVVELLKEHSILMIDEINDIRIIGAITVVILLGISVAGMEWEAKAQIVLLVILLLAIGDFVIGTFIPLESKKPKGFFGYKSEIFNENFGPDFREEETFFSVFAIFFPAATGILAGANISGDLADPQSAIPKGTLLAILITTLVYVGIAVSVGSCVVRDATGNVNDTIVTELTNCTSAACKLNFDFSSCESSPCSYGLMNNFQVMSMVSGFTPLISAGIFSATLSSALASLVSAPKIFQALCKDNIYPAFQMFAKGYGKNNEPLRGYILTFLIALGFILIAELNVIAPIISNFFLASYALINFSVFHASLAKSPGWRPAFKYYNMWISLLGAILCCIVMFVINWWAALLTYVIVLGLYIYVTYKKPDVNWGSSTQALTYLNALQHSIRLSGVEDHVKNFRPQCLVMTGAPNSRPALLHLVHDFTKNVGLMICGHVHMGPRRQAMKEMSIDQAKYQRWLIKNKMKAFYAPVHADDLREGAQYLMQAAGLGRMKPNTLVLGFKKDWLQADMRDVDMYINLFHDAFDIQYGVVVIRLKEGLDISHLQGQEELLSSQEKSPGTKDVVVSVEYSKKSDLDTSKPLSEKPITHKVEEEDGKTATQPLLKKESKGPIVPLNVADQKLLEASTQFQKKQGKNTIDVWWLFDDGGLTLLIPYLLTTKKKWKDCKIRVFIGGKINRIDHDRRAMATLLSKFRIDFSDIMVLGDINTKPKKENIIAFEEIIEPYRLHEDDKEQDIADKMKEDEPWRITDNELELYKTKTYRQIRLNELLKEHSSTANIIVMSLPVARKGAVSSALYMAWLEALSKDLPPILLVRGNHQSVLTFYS

Compound: CCCSc1ccc2nc(NC(=O)OC)[nH]c2c1 [ABZ, albendazole]
- mean survival (glioblastoma): 36 days

Compound: CCCCNc1cc(C(=O)O)cc(S(N)(=O)=O)c1Oc1ccccc1 [bumetanide]
- reduction of number of cells (U87 cell lines; day 3): not
- reduction of number of cells (U87 cell lines; day 5): not
- reduction of cell number (U87 cell lines; day 8): 18%
- cytotoxic effect (in words) (U87 cell lines): strong cytotoxic action
- inhibition of K+ influx [1]: 49%
- dead cells / reduction of cell density (U87 cells [2]): 3,2%
- reduction of invasion (U87 cells [3]): 40%
- anti-invasive action (persistence of a trench) (U87 cells [3]): neither applications of mebendazole or bumetanide separately produced an anti-invasive action
- EC50 (NKCC1): 312 nM

Compound: COC(=O)Nc1nc2ccc(C(=O)c3ccccc3)cc2[nH]1 [mebendazole, methyl N-[6-(benzoyl)-1H-benzimidazol-2-yl] carbamate]
- mean survival (glioblastoma): 49 days
- reduction of number of cells (U87 cell lines; day 3): 43%
- reduction of number of cells (U87 cell lines; day 5): 90%
- reduction of number of cells (U87 cell lines; day 8): 70%
- reduction of cell number (U87 cell lines; day 1): 55%
- reduction of cell number (U87 cell lines; day 5): 89%
- reduction of cell number (U87 cell lines; day 8): 64%
- cytotoxic effect (in words) (U87 cell lines): very strong cytotoxic effect
- inhibition of K+ influx [1]: ineffective
- dead cells / reduction of cell density (U87 cells [2]): 50%
- reduction of invasion (U87 cells [3]): 15%
- anti-invasive action (persistence of a trench) (U87 cells [3]): neither applications of mebendazole or bumetanide separately produced an anti-invasive action
- EC50 on NKCC1-mediated K+ influx (NKCC1): inefficacy

Compound: C[C@@H]1O[C@@H](O[C@H]2C[C@@H](O)[C@]3(CO)[C@H]4[C@H](O)C[C@]5(C)[C@@H](C6=CC(=O)OC6)CC[C@]5(O)[C@@H]4CC[C@]3(O)C2)[C@H](O)[C@H](O)[C@H]1O [ouabain]
- inhibition at 100 µM ([1]; Homo sapiens): 44%

Reference: US20240033238A1, “COMBINATION OF COMPOUNDS FOR USE IN THERAPY” (B&A ONCOMEDICAL, priority 2022, published 2024)
